Measurements published in EP0012729A1, “Therapeutic compositions containing as active compound a substituted acetic acid or its salt” ("IBIS" ISTITUTO BIOCHIMICO SPERIMENTALE S.p.A., priority 1978, dated 1980).

Tested on: Wistar rats
Experiment: Choleretic activity in the rat, bile fistula method
Assay type: in vivo
Conditions: for Peak choleresis time of appearance / Peak choleresis % increase / Duration index: 200 mg/kg p.o. (dose given for 1620 only); for Peak choleresis % increase: increase over controls as percentage of base choleresis; for Duration index: time for halving the maximum choleresis increase; for Flow: 200 mg/kg p.o.; for ml of bile flow ± s.e.: second series
Excerpt: It is known that the primary effect of a choleretic agent is to increase the bile flow and the quantity of solid substances excreted with the bile. A good choleretic must provide this effect in a sufficiently intense and prolonged manner. In addition, as in the case of all drugs, it must have low acute toxicity and good general tolerability, but in particular must be free from toxic effects on the organ on which it is required to act, i.e. the liver, whether this is in a normal or pathological state. The analysis of the new product in comparison with the best known products for the same therapeutic use has therefore been focused on these aspects. The choleretic activity of the new product has been determined in the rat by using the bile fistula method. Wistar rats of both sexes and having a weight of between 180 and 240 g were used.
The animals, which were kept fasting for 12 hours but with free access to water, were narcotised by ethyl urethane in a dose of 1 g/kg by intra peritoneal or intramuscular injection.
After binding the animals to the retention bed, a median laparatomy was carried out, and when the bile duct had been isolated a cannula needle was inserted into it. A polythene tube was then inserted into those ani mals which were to receive the products intraduodenally, after which a su ture was carried out on the abdominal wall, and the bile was allowed to discharge for 30 minutes after inserting the cannula in the bile duct, so as to allow the discharge to become normal. The bile was then collec ted for one hour.
Having determined the volume of bile discharged during this first hour of collection (base volume), the products under examination were administered at the predetermined doses and by the predetermined methods. The bile excreted by the individual animals was then collected over each hour for a further six hours.
During the experiments, the animals were kept at ambient temperature of about 22°C, and at regular intervals of two hours received 10 ml/kg of physiological solution s.c.
The liquids were administered at a temperature of 37°C.
The bile flow and cholesterol excretion were determined on those bile fractions excreted by the animals over each hour starting from the base hour until the end of the experiment
The dry residue (R.So) was determined on the bile fraction excreted during the base hour and on the total bile fractions excreted during the sub sequent hours. For practical reasons, the determination of the dry residue and of the cholesterol (carried out by the Sperry & Webb method) were carried out on the pool of bile excreted by the entire group of animals subjected to the same treatment instead of on the bile fractions excreted by the individual animals (which was sometimes insufficient for determining the cholesterol).
In compiling the graphs, the differences between the choleresis in the treated animals and that in the controls was calculated over the considered time intervals, and expressed as a percentage of the base choleresis. For this calculation, the following formula was used: [formula] where Cn and C' represent the choleresis (in ml/kg/h for the bile flow, and in mg/kg/h for the dry residue) determined over the considered time interval for the group of treated animals and the group of controls respectively. Cb and C'b represent the base choleresis in the group of treated animals and group of controls respectively.
This index was calculated as the time for halving the maximum choleresis increase recorded under their effect.

With `CCC(C(=O)O)C1(O)CCC(c2ccccc2)CC1` (stereo not drawn) [α-(1-hydroxy--4-phenylcyclohexyl)butyric acid] the “Peak choleresis time of appearance” value was 1st hour, the “Peak choleresis % increase” value was 105% and the Duration index was 180'. For the same compound, the Flow (0 (base hour)) was 2,70±0,25 ml/kg/h, the Flow (1h) was 5,60±0,51 ml/kg/h and the Flow (2h) was 5,42±0,47 ml/kg/h. For the same compound, the Flow (3h) was 4,63±0,28 ml/kg/h, the Flow (4h) was 3,68±0,18 ml/kg/h and the Flow (5h) was 3,05±0,12 ml/kg/h. The Flow (6h) was 2,70±0,17 ml/kg/h, the “ml of bile flow ± s.e.” value (oral by gastric probe 50 mg/kg, 0 (base values)) was 2,8±0,22 ml and the “ml of bile flow ± s.e.” value (oral by gastric probe 50 mg/kg, 1 h) was 3,2±0,11 ml. The “ml of bile flow ± s.e.” value (oral by gastric probe 50 mg/kg, 2 h) was 3,0±0,12 ml, the “ml of bile flow ± s.e.” value (oral by gastric probe 50 mg/kg, 3 h) was 2,9±0,10 ml and the “ml of bile flow ± s.e.” value (oral by gastric probe 50 mg/kg, 4 h) was 2,8±0,12 ml. For the same compound, the “ml of bile flow ± s.e.” value (oral by gastric probe 50 mg/kg, 5 h) was 2,5±0,10 ml, the “ml of bile flow ± s.e.” value (oral by gastric probe 50 mg/kg, 6 h) was 2,0±0,11 ml and the “ml of bile flow ± s.e.” value (oral by gastric probe 100 mg/kg, 0 (base values)) was 2,6±0,17 ml. The “ml of bile flow ± s.e.” value (oral by gastric probe 100 mg/kg, 1 h) was 3,7±0,13 ml, the “ml of bile flow ± s.e.” value (oral by gastric probe 100 mg/kg, 2 h) was 3,6±0,14 ml and the “ml of bile flow ± s.e.” value (oral by gastric probe 100 mg/kg, 3 h) was 3,4±0,11 ml. For the same compound, the “ml of bile flow ± s.e.” value (oral by gastric probe 100 mg/kg, 4 h) was 3,0±0,11 ml, the “ml of bile flow ± s.e.” value (oral by gastric probe 100 mg/kg, 5 h) was 2,9±0,13 ml and the “ml of bile flow ± s.e.” value (oral by gastric probe 100 mg/kg, 6 h) was 2,1±0,13 ml.

With “dihydroxybutylether [Dihydroxydibutyl-ether]” the “Peak choleresis time of appearance” value was 1st hour, the “Peak choleresis % increase” value was 49% and the Duration index was 45'. The Flow (0 (base hour)) was 3,36±0,19 ml/kg/h, the Flow (1h) was 5,10±0,23 ml/kg/h and the Flow (2h) was 3,79±0,18 ml/kg/h. For the same compound, the Flow (3h) was 3,08±0,15 ml/kg/h, the Flow (4h) was 2,68±0,15 ml/kg/h and the Flow (5h) was 1,97±0,05 ml/kg/h. For the same compound, the Flow (6h) was 1,77±0,11 ml/kg/h.
